For one series, the system named is p-HER-2. Kind of series: Western blot p-HER-2 in MDA-MB-453. It is filed as cell-based, human. As to conditions: increasing C20 levels. On the procedure:
(§1) After incubation with compound, cells were harvested and washed with PBS, then lysed in lysis buffer (30 mm Tris, pH 7.5, 150 mm NaCl, 1 mm phenylmethylsulfonyl fluoride, 1 mm Na3VO4, 1% Nonidet P-40, 10% glycerol, and phosphatase and protease inhibitors). After centrifugation at 12,000 g for 5 min, the supernatant was collected as total protein. The concentration of the protein was determined by a BCATM protein assay kit (Pierce, Rockford, IL, USA). The protein samples were separated by 10% SDS–PAGE and subsequently electrotransferred onto a polyvinylidene difluoride membrane (Millipore, Bedford, MA, USA). The membrane was blocked with 5% non-fat milk for 2 h at room temperature. The blocked membrane was probed with the indicated primary antibodies overnight at 4 °C, and then incubated with a horse radish peroxidase (HRP)-coupled secondary antibody.

The subject of another series is Caspase3. Nature of the series: Western blot Caspase3 in MDA-MB-453. The format is cell-based, human. As to conditions: increasing C20 levels. How it is done: as §1
A further series addresses EGFR (Homo sapiens, UniProt P00533). Kind of series: EGFR autophosphorylation kinase assay (DELFIA/time-resolved fluorometry).
In another series the target is T1, HER-3 (Homo sapiens, UniProt P21860).
T1 construct: HER-3 cytoplasmic domain (HER-3-CD, amino acids 665–1339); His6 (N); made in house
T1 sequence (P21860 665-1339): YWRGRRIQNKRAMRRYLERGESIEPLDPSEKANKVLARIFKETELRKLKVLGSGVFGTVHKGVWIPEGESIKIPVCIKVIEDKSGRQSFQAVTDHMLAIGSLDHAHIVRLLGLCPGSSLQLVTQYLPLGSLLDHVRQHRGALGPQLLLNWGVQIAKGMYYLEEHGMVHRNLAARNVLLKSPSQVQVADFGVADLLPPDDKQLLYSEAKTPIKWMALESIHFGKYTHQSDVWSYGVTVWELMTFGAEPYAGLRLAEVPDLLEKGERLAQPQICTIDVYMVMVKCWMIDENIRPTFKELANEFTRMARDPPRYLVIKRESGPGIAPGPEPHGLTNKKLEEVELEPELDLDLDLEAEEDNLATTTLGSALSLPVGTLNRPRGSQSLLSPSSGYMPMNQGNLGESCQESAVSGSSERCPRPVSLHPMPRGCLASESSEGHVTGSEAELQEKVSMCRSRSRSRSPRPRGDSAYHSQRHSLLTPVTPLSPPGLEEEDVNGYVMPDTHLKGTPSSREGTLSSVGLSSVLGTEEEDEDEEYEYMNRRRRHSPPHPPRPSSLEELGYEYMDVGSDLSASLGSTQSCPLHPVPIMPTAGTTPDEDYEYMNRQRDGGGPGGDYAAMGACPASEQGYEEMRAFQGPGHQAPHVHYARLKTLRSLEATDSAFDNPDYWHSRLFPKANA
Kind of series: HER-3 inhibitory assay. The format is biochemical. How it is done:
A sequence that encodes (His)6 was located at the 5′ upstream to the HER-2 and EGFR sequences. Sf-9 cells were infected for 3 days for protein expression. Sf-9 cell pellets were solubilized at 0 °C in a buffer at pH 7.4 containing 50 mM HEPES, 10 mM NaCl, 1% Triton, 10 μM ammonium molybdate, 100 μM sodium vanadate, 10 μg/mL aprotinin, 10 μg/mL leupeptin, 10 μg/mL pepstatin, and 16 μg/mL benzamidine, HCl for 20 min followed by 20 min centrifugation. Crude extract supernatant was passed through an equilibrated Ni–NTA superflow packed column and washed with 10 mM and then 100 mM imidazole to remove nonspecifically bound material. Histidine-tagged proteins were eluted with 250 and 500 mM imidazole and dialyzed against 50 mM NaCl, 20 mM HEPES, 10% glycerol and 1 μg/mL each of aprotinin, leupeptin, and pepstatin for 2 h. The entire purification procedure was performed at 4 °C or on ice.
A 1.8 Kb cDNA encoded for human HER-3 cytoplasmic domain (HER-3-CD, amino acids 665–1339) was applied to perform the experiment using the same method as EGFR/HER-2.

A further series addresses HER-2 (Homo sapiens, UniProt P04626). Kind of series: HER-2 autophosphorylation kinase assay (DELFIA/time-resolved fluorometry).
For a further series, the system named is MDA-MB-453 cell line. Nature of the series: Flow cytometry, Annexin V-FITC/PI apoptosis. It is filed as cell-based, human. As to conditions: 0.05, 0.1 and 0.2 μM, 24 h. How it is done: MDA-MB-453 cell line was seeded per well in 24-well plates and incubated overnight. Then they were treated with compound C20 at three different concentrations (0.05 μM, 0.1 μM and 0.2 μM, separately). DMSO was chosen as the negative control with a regular dosage of 0.2%. After 24 h, cells were harvested for the apoptosis detection. In brief, collected cells were washed once with PBS and subsequently washed once with binding buffer, and then stained with Annexin V-FITC and propidium iodide (PI) in the binding buffer for 20 min at room temperature in the dark. Apoptotic cells were quantified using a FACScan cytofluorometer (PT. Madagasi Brosa Inc. JI. Batang Hari NO. 73, Propinsi Sumatera Utara, Indonesia) plotting at least 10,000 events per sample. To quantify the data, the frequencies in all quadrants were analyzed using flowjo software. We regarded cells in the lower right quadrant (Annexin V positive/PI negative) as early apoptotic cells, and cells in upper right quadrant (Annexin V positive/PI positive) as late apoptotic cells and necrotic cells.
Background: In flow cytometry, cells or beads pass a laser one at a time.

Another series has as its system p-EGFR. Nature of the series: Western blot p-EGFR in MDA-MB-453. It is filed as cell-based, human. As to conditions: increasing C20 levels. On the procedure: as §1
Background: In western blotting, separated proteins are transferred to a membrane and probed.

For a further series, the system named is human erythrocytes. Kind of series: Hemolysis test. The following applies: lytic concentration 30%. The format is cell-based. How it is done: Hemolytic activity was assayed using fresh capillary human blood. Erythrocytes were collected by centrifuging the blood three times in chilled phosphate buffered saline (PBS at 4 °C) at 1000 × g for 10 min. The final pellet was resuspended in PBS to give a 2% w/v solution. Using a microtitre plate, 100 μL of the erythrocyte solution was added to dextran, PLL, stearyl-PLL or stearyl-PLL+ LDL (1–1000/μg/mL) in a volume of […]. Samples were then incubated for 3 h and the microtitre plate was centrifuged then at 1000 × g for 10 min and the supernatants (100 μL) transferred into a new microtitre plate. Hemoglobin release was determined spectrophotometrically using a microtitre plate reader (absorbance at 550 nm). Results were expressed as the amount of released hemoglobin induced by the compounds as a percentage of the total. Hemolysis test was tested according to the guide of biological evaluation of medical device (SFDA, China).

The structures appear in SMILES notation.

HER-2, sequence (P04626 676-1245): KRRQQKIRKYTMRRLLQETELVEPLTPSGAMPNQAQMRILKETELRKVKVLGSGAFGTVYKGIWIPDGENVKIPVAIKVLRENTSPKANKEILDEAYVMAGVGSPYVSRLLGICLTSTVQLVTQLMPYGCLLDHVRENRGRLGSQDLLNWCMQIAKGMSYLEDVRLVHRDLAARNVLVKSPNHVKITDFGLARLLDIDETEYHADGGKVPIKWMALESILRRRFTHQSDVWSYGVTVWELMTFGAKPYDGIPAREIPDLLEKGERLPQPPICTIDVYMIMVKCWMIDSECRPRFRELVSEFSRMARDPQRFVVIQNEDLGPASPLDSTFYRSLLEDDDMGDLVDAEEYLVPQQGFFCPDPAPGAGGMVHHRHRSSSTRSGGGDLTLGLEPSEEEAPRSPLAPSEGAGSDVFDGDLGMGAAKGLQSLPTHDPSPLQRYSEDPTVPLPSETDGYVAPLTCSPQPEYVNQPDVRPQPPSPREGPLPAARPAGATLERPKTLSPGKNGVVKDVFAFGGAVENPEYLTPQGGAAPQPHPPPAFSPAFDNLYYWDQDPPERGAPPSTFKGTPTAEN
EGFR, sequence (P00533 669-1210): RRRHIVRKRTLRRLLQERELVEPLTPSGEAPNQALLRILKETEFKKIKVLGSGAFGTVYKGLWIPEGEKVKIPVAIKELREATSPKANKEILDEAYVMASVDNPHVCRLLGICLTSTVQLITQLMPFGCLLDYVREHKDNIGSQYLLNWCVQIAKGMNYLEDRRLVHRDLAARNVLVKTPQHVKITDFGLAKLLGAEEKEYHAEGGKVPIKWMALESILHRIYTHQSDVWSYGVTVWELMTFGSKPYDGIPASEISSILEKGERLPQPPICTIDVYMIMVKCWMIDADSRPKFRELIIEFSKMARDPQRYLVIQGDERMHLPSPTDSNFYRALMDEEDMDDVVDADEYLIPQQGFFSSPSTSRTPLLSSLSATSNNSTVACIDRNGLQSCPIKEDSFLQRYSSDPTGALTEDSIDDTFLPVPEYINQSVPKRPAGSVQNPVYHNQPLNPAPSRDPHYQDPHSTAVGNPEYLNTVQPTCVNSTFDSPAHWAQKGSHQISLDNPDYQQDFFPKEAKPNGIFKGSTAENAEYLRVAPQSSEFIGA

As to `COc1ccc(C2CC(c3ccc4c(c3)OCCO4)=NN2C(N)=S)cc1OC` (centres unmarked) [Compound C20, 3-(2,3-dihydrobenzo[b][1,4]dioxin-6-yl)-5-(3,4-dimethoxyphenyl)-4,5-dihydro-1H-pyrazole-1-carbothioamide], the p-HER-2 levels entry in the series with p-HER-2 is recorded as “gradually trend of decrease”. In addition, the Caspase3 levels result with Caspase3 is “corresponding increase”. Besides, the values for the IC50 on EGFR, against HER-3 and against HER-2 were 28.6 ± 2.52 µM, 5.2 ± 0.46 µM and 0.03 ± 0.002 µM, respectively. In the series with MDA-MB-453 cell line, the induction of apoptosis entry was “induce apoptosis of activated MDA-MB-453 cell line in a dose-dependent manner”. In the series on p-EGFR, the p-EGFR levels result was “unconspicuous”. The “Hemolysis LC30” value with human erythrocytes was above 10000 µg/mL.

The values are drawn from article PMC4897788, “Design, biological evaluation and 3D QSAR studies of novel dioxin-containing pyrazoline derivatives with thiourea skeleton as selective HER-2 inhibitors” (Scientific Reports, 2016).
